# Source: US20220128542A1, “TREATMENT EFFICIENCY EVALUATION” (TX MEDIC AB, priority 2019, published 2022)
# System: brain of rats subjected to severe traumatic brain injury (sTBI)
# Test: Ingenuity pathway analysis of differentially regulated genes after sTBI (canonical pathways, diseases and molecular functions; Example 4)
# Set-up: species or system rat
# Procedure: Pathway analysis of the differentially regulated genes was carried out using the Ingenuity pathway analysis package. The analysis was performed with special reference to pathways and molecular processes and diseases associated with neurodegenerative disease, including dementia, Alzheimer's disease, ALS, TBI and stroke, and with scarring and fibrosis, including glaucoma and normal pressure hydrocephalus (NPH) after subarachnoid haemorrhage.
# [1] = TBI + 5 mg/kg LMW-DS, 7 days after TBI
# [2] = TBI + 15 mg/kg LMW-DS, 2 days after TBI
# [3] = TBI + 15 mg/kg LMW-DS, 7 days after TBI, relative to control
# [4] = TBI + 15 mg/kg LMW-DS, 7 days after TBI
# [5] = TBI + 15 mg/kg repeat dose LMW-DS, 7 days after TBI
# [6] = TBI + 15 mg/kg repeated dose LMW-DS, 7 days after TBI, relative to control
# [7] = TBI + 15 mg/kg repeated dose LMW-DS, 7 days after TBI
substance,measurement,setting,value
sodium salt of dextran sulfate [LMW-DS],Ingenuity canonical pathway: Acute Phase Response Signaling,[1],Activated
same,Ingenuity canonical pathway: Adrenomedullin signaling pathway,[1],Inhibited
same,Ingenuity canonical pathway: Cardiac Hypertrophy Signaling,[1],Activated
same,Ingenuity canonical pathway: Colorectal Cancer Metastasis Signaling,[1],Inhibited
same,Ingenuity canonical pathway: Dendritic Cell Maturation,[1],Activated
same,Ingenuity canonical pathway: ERK5 Signaling,[1],Inhibited
same,Ingenuity canonical pathway: ERK/MAPK Signaling,[1],Activated
same,Ingenuity canonical pathway: Endothelin-1 Signaling,[1],Activated
same,Ingenuity canonical pathway: Fcγ Receptor-mediated Phagocytosis in Macrophages and Monocytes,[1],Activated
same,Ingenuity canonical pathway: GNRH Signaling,[1],Activated
same,Ingenuity canonical pathway: HMGB1 Signaling,[1],Activated
same,Ingenuity canonical pathway: IL-1 Signaling,[1],Activated
same,Ingenuity canonical pathway: IL-6 Signaling,[1],Activated
same,Ingenuity canonical pathway: IL-8 Signaling,[1],Activated
same,Ingenuity canonical pathway: ILK Signaling,[1],Activated
same,Ingenuity canonical pathway: Leukocyte Extravasation Signaling,[1],Activated
same,Ingenuity canonical pathway: Neuroinflammation Signaling Pathway,[1],Activated
same,Ingenuity canonical pathway: Osteoarthritis Pathway,[1],Inhibited
same,Ingenuity canonical pathway: PI3K Signaling in B Lymphocytes,[1],Activated
same,Ingenuity canonical pathway: PKCO Signaling in T Lymphocytes,[1],Activated
same,Ingenuity canonical pathway: PPAR Signaling,[1],Inhibited
same,Ingenuity canonical pathway: Phospholipase C Signaling,[1],Activated
same,Ingenuity canonical pathway: Production of Nitric Oxide and Reactive Oxygen Species in Macrophages,[1],Activated
same,Ingenuity canonical pathway: Protein Kinase A Signaling,[1],Inhibited
same,Ingenuity canonical pathway: Role of NFAT in Regulation of the Immune Response,[1],Activated
same,Ingenuity canonical pathway: Signaling by Rho Family GTPases,[1],Activated
same,Ingenuity canonical pathway: Synaptic Long Term Depression,[1],Activated
same,Ingenuity canonical pathway: Wnt/β-catenin Signaling,[1],Inhibited
same,Ingenuity canonical pathway: cAMP-mediated signaling,[1],Inhibited
same,Ingenuity canonical pathway: mTOR Signaling,[1],Activated
same,Effect on diseases or functions annotation: Apoptosis,[2],Inhibited
same,Effect on diseases or functions annotation: Apoptosis of tumor cell lines,[2],Activated
same,Effect on diseases or functions annotation: Behavior,[2],Inhibited
same,Effect on diseases or functions annotation: Cell death,[2],Inhibited
same,Effect on diseases or functions annotation: Necrosis,[2],Inhibited
same,Effect on diseases or functions annotation: Quantity of blood cells,[2],Inhibited
same,Effect on diseases or functions annotation: Quantity of cells,[2],Inhibited
same,Effect on diseases or functions annotation: Quantity of lymphocytes,[2],Inhibited
same,"z score, Ingenuity canonical pathway: Endothelin-1 Signaling",[3],1
same,"z score, Ingenuity canonical pathway: Phospholipase C Signaling",[3],2
same,"z score, Ingenuity canonical pathway: cAMP-mediated signaling",[3],1
same,Diseases or functions annotation: Abdominal neoplasm,[4],Inhibited
same,Diseases or functions annotation: Apoptosis,[4],Inhibited
same,Diseases or functions annotation: Apoptosis of tumor cell lines,[4],Activated
same,Diseases or functions annotation: Cancer,[4],Activated
same,Diseases or functions annotation: Carcinoma,[4],Activated
same,Diseases or functions annotation: Cell death,[4],Inhibited
same,Diseases or functions annotation: Cell death of tumor cell lines,[4],Activated
same,Diseases or functions annotation: Cell movement of myeloid cells,[4],Activated
same,Diseases or functions annotation: Development of carcinoma,[4],Activated
same,Diseases or functions annotation: Development of connective tissue cells,[4],Activated
same,Diseases or functions annotation: Development of malignant tumor,[4],Inhibited
same,Diseases or functions annotation: Differentiation of bone cells,[4],Activated
same,Diseases or functions annotation: Epithelial neoplasm,[4],Activated
same,Diseases or functions annotation: Extracranial solid tumor,[4],Activated
same,Diseases or functions annotation: Frequency of tumor,[4],Inhibited
same,Diseases or functions annotation: Genitourinary tumor,[4],Activated
same,Diseases or functions annotation: Incidence of tumor,[4],Inhibited
same,Diseases or functions annotation: Leukocyte migration,[4],Activated
same,Diseases or functions annotation: Necrosis,[4],Activated
same,Diseases or functions annotation: Non-melanoma solid tumor,[4],Activated
same,Diseases or functions annotation: Quantity of cells,[4],Activated
same,Diseases or functions annotation: Solid tumor,[4],Activated
same,Diseases or functions annotation: Transcription,[4],Activated
same,Diseases or functions annotation: Transcription of RNA,[4],Activated
same,Diseases or functions annotation: Tumorigenesis of epithelial neoplasm,[4],Activated
same,Diseases or functions annotation: Tumorigenesis of tissue,[4],Activated
same,Ingenuity canonical pathway: Endothelin-1 Signaling,[4],Activated
same,Ingenuity canonical pathway: Phospholipase C Signaling,[4],Activated
same,Ingenuity canonical pathway: cAMP-mediated signaling,[4],Activated
same,Diseases or functions annotation: Abdominal cancer,[5],Inhibited
same,Diseases or functions annotation: Abdominal neoplasm,[5],Inhibited
same,Diseases or functions annotation: Adenocarcinoma,[5],Inhibited
same,Diseases or functions annotation: Branching of cells,[5],Activated
same,Diseases or functions annotation: Carcinoma,[5],Inhibited
same,Diseases or functions annotation: Cell movement,[5],Activated
same,Diseases or functions annotation: Cell-cell contact,[5],Activated
same,Diseases or functions annotation: Concentration of hormone,[5],Activated
same,Diseases or functions annotation: Concentration of lipid,[5],Inhibited
same,Diseases or functions annotation: Dendritic growth/branching,[5],Inhibited
same,Diseases or functions annotation: Development of connective tissue cells,[5],Inhibited
same,Diseases or functions annotation: Development of gap junctions,[5],Activated
same,Diseases or functions annotation: Development of neurons,[5],Activated
same,Diseases or functions annotation: Developmental process of synapse,[5],Activated
same,Diseases or functions annotation: Differentiation of bone cells,[5],Inhibited
same,Diseases or functions annotation: Differentiation of connective tissue cells,[5],Inhibited
same,Diseases or functions annotation: Digestive organ tumor,[5],Inhibited
same,Diseases or functions annotation: Digestive system cancer,[5],Inhibited
same,Diseases or functions annotation: Epithelial neoplasm,[5],Inhibited
same,Diseases or functions annotation: Extracranial solid tumor,[5],Activated
same,Diseases or functions annotation: Formation of cellular protrusions,[5],Activated
same,Diseases or functions annotation: Formation of intercellular junctions,[5],Activated
same,Diseases or functions annotation: Gastrointestinal tumor,[5],Inhibited
same,Diseases or functions annotation: Hematologic cancer,[5],Inhibited
same,Diseases or functions annotation: Hematopoietic neoplasm,[5],Inhibited
same,Diseases or functions annotation: Learning,[5],Activated
same,Diseases or functions annotation: Microtubule dynamics,[5],Activated
same,Diseases or functions annotation: Migration of cells,[5],Activated
same,Diseases or functions annotation: Morphogenesis of neurons,[5],Activated
same,Diseases or functions annotation: Neurotransmission,[5],Activated
same,Diseases or functions annotation: Non-hematological solid tumor,[5],Inhibited
same,Diseases or functions annotation: Non-melanoma solid tumor,[5],Inhibited
same,Diseases or functions annotation: Nonhematologic malignant neoplasm,[5],Inhibited
same,Diseases or functions annotation: Obesity,[5],Activated
same,Diseases or functions annotation: Organization of cytoplasm,[5],Activated
same,Diseases or functions annotation: Organization of cytoskeleton,[5],Activated
same,Diseases or functions annotation: Quantity of Ca^2+,[5],Activated
same,Diseases or functions annotation: Quantity of carbohydrate,[5],Inhibited
same,Diseases or functions annotation: Quantity of cells,[5],Activated
same,Diseases or functions annotation: Seizure disorder,[5],Activated
same,Diseases or functions annotation: Size of body,[5],Activated
same,Diseases or functions annotation: Skin lesion,[5],Activated
same,Diseases or functions annotation: Transport of ion,[5],Activated
same,Diseases or functions annotation: Transport of metal,[5],Activated
same,Diseases or functions annotation: Transport of molecule,[5],Activated
same,Diseases or functions annotation: Tumorigenesis of tissue,[5],Inhibited
same,"z score, Ingenuity canonical pathway: 3-phosphoinositide Degradation",[6],2
same,"z score, Ingenuity canonical pathway: Acute Phase Response Signaling",[6],−0.447
same,"z score, Ingenuity canonical pathway: Adrenomedullin signaling pathway",[6],−0.378
same,"z score, Ingenuity canonical pathway: B Cell Receptor Signaling",[6],−0.447
same,"z score, Ingenuity canonical pathway: Ephrin Receptor Signaling",[6],2.236
same,"z score, Ingenuity canonical pathway: Fc Epsilon RI Signaling",[6],−1
same,"z score, Ingenuity canonical pathway: G Beta Gamma Signaling",[6],2.236
same,"z score, Ingenuity canonical pathway: NF-κB Signaling",[6],0.447
same,"z score, Ingenuity canonical pathway: Opioid Signaling Pathway",[6],0.816
same,"z score, Ingenuity canonical pathway: Role of NFAT in Cardiac Hypertrophy",[6],0.447
same,"z score, Ingenuity canonical pathway: Role of NFAT in Regulation of the Immune Response",[6],2.236
same,"z score, Ingenuity canonical pathway: Signaling by Rho Family GTPases",[6],1
same,"z score, Ingenuity canonical pathway: Superpathway of Inositol Phosphate Compounds",[6],2
same,"z score, Ingenuity canonical pathway: Synaptic Long Term Depression",[6],1.342
same,Ingenuity canonical pathway: 3-phosphoinositide Degradation,[7],Activated
same,Ingenuity canonical pathway: Acute Phase Response Signaling,[7],Inhibited
same,Ingenuity canonical pathway: Adrenomedullin signaling pathway,[7],Inhibited
same,Ingenuity canonical pathway: B Cell Receptor Signaling,[7],Inhibited
same,Ingenuity canonical pathway: Ephrin Receptor Signaling,[7],Activated
same,Ingenuity canonical pathway: Fc Epsilon RI Signaling,[7],Inhibited
same,Ingenuity canonical pathway: G Beta Gamma Signaling,[7],Activated
same,Ingenuity canonical pathway: NF-κB Signaling,[7],Activated
same,Ingenuity canonical pathway: Opioid Signaling Pathway,[7],Activated
same,Ingenuity canonical pathway: Role of NFAT in Cardiac Hypertrophy,[7],Activated
same,Ingenuity canonical pathway: Role of NFAT in Regulation of the Immune Response,[7],Activated
same,Ingenuity canonical pathway: Signaling by Rho Family GTPases,[7],Activated
same,Ingenuity canonical pathway: Superpathway of Inositol Phosphate Compounds,[7],Activated
same,Ingenuity canonical pathway: Synaptic Long Term Depression,[7],Activated
